Results published in PMC10759609, “A novel PDPN antagonist peptide CY12-RP2 inhibits melanoma growth via Wnt/β-catenin and modulates the immune cells” (Journal of Experimental & Clinical Cancer Research : CR, 2024).
Where two headings read alike, the source gives them in different places. Peptide text beside a SMILES is read from it.

Assays:
melanoma cells = assay: Melanoma cell / stimulated PBMC co-culture killing; format: cell-based; conditions: PBMC ratios 0%-50%, 48 h, crystal violet
Description: PBMCs (Shenzhen People's Hospital. Shenzhen, China)) from a healthy donor were isolated using a density gradient centrifugation procedure. Firstly, the immune cell proportions analysis of PBMCs was measured using flow cytometry. We then investigated the effect of CY12-RP2 on the cytokines in PBMCs using ELISA assays. Briefly, PBMCs (5 × 10^5 cells/well) were cultured in 24-well plates with RPMI1640 containing 10% FBS for 24 h, and the cells were stimulated with CY12-RP2 (50 µM) for 48 h. Afterward, supernatants were collected for subsequent assays. […] The experimental results were then observed by crystal violet staining after 48 h.

[1] = molecular target: T1, PDPN recombinant proteins (Homo sapiens, UniProt Q86YL7); assay: SPR assay, binding to immobilized PDPN; conditions: CM7 chip, 100 μM to 0.00128 μM
T1 construct: PDPN recombinant proteins were coated on the CM7 sensor chip
T1 sequence (Q86YL7 23-162): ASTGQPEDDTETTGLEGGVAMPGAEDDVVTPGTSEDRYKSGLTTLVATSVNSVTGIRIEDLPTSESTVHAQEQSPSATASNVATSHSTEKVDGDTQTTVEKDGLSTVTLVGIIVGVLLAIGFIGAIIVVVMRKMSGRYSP
Description: SPR assay was conducted on a GE Biacore 3000 (Cytiva, USA) using a CM7 sensorchip for protein immobilization. All experimental steps were performed at a temperature of 24 °C and samples were kept at 4 °C. CY12-RP1 and CY12-RP2 peptides were diluted in the running buffer ([…] saline buffer, HBS-EP) at the final concentrations ranging from 100 μM to 0.00128 μM. The peptides were injected at a rate of 30 μL/min through immobilized PDPN for 240 s for association. All regenerations were introduced at a flow rate of 30 µL/min. SPR assay was performed in triplicate and the results were analyzed using Biacore 3000 software.
To further investigate the potential anti-tumor effect of PDPN antagonist on melanoma, we used a Ph.D.TM-12 Phage Display Peptide Library to screen for a PDPN antagonist peptide. After four rounds of biopanning under progressively stringent selection conditions in vitro, seven clones with individual amino acid sequences were obtained (Fig. 3A). To assess the anti-tumor effects of these seven peptides on melanoma cells, the proliferation of A375 and A875 cell lines after treating with various concentration peptides were examined by CCK8 assay. […] We then performed immunofluorescence, SPR assay, and flow cytometry to identify the binding specificity of CY12-RP1 and CY12-RP2 with PDPN in melanoma cells. […]

[2] = system: immune cells in spleen and lung; assay: Flow cytometry of immune cells, spleen and lung, lung metastasis model; format: in vivo, BALB/c mice; conditions: lungs and spleens
Description: In this study, cell apoptosis was analyzed by flow cytometry using a PI/FITC-Annexin V Apoptosis Detection Kit (4A Biotech, Beijing, China). Briefly, melanoma cells were collected and washed with pre-chilled PBS, then resuspended with Annexin V staining buffer. Afterward, fluorescein isothiocyanate (FITC)-Annexin V and PI were stained for 5 min at RT, and then immediately detected using a Beckman flow cytometer. To investigate immune cell infiltration of the lung and spleen in the pulmonary metastasis mouse model, the surface and nuclear antigen staining were performed following the experimental procedure. Fluorescence-labeled mAb against CD3, CD25, CD49b, GranzymeB, CD11b, CD86, and CD206 were purchased from BioLegend (BioLegend, San Diego, CA), and CD4, CD8, and Foxp3 from Tonbo. Surface markers, including CD3, CD4, CD8, CD25, CD49b, GranzymeB, CD11b, CD86 and CD206, were firstly stained, then fixed, permeabilized, and stained for the intranuclear marker Foxp3, respectively. Finally, the samples were measured using flow cytometry.
For pulmonary metastasis assays, 6- to 8-week-old female BALB/c mice were administered with 5 × 10^5 B16F10-Luc cells via tail vein to establish an experimental pulmonary metastasis model of melanoma. CY12-RP2 was administered to the mice intravenously at high and low doses (25 mg/kg and 100 mg/kg) every two days, and the mice were sacrificed after 15 days of treatment. Pulmonary metastases were evaluated using bioluminescence imaging on the 2nd, 5th, 10th, 15th and 20th day after B16F10-Luc cells injection. Subsequently, the BALB/c mice were sacrificed, and the organs including the heart, liver, spleen, lung, and kidney were collected and imaged for evaluation of micrometastases. The xenografts and organs were kept in a 4% paraformaldehyde solution for subsequent histological assays.

A875 cells = format: cell-based
Description: (§1) Cell viability was determined using a CCK8 kit. Melanoma cells were plated into 96-well plates at a density of 5 × 10^3 cells/well. The cells were then treated with peptides at the determined concentrations for 24, 48, and 72 h. The CCK-8 (10 μL/ well) was pipetted into each well and the cells were incubated at 37 °C for 1~3 h. The viable cells were calculated by performing absorbance readings at 450 nm using a microplate reader (BioTek).

A375 cells = format: cell-based
Description: as §1

A875 cellular spheroids = assay: 3D spheroid diameter, A875; format: cell-based; conditions: only at 200 μM, 5 days
Description: A375 and A875 cells were collected and suspended in Matrigel (Corning) with a density of 1.0 × 10^7 cells per mL. 3D spheroids were fabricate using cell-processing system that have two pumps. One pump was loaded with Matrigel and another with fluorocarbon oil (3 M NOVEC, HFE-7000). The flow rate of Matrigel was 20 μL/min and the fluorocarbon oil rate was 30 μL/min. The 3D spheroids were incubated at 37 °C with 5% CO2 after printing. Culturing medium was DMEM medium supplemented with 10% FBS, and 100 IU of penicillin and […] streptomycin. The medium was changed every 3 days. Afterward, the 3D spheroids were harvested for drug analysis.
Prepared melanoma cells spheroids were plated in 48-well plates. Following incubation for 3 days, the spheroids were exposed to different concentrations (0, 50, 100 and 200 μM) of CY12-RP2, and changes in spheroid diameter were detected after 5 days of treatment. Additionally, melanoma cell spheroids were treated with various concentrations of CY12-RP2 as described previously, and after 72 h, the spheroids were stained for immunofluorescence with caspase 3 primary antibody. The specific experimental procedures refer to the following immunofluorescence analysis. Additionally, we co-cultured peptide-stimulated PBMC with spheroids to determine the tumor-killing ability of activated PBMC.

With `CC(C)C[C@H](NC(=O)[C@H](Cc1ccc(O)cc1)NC(=O)[C@@H](N)[C@@H](C)O)C(=O)N[C@@H](CS)C(=O)N[C@H](C(=O)N[C@@H](C)C(=O)N[C@@H](CS)C(=O)N[C@@H](CC(=O)O)C(=O)N[C@@H](Cc1ccc(O)cc1)C(=O)N[C@H](C(=O)N[C@@H](Cc1c[nH]cn1)C(=O)N[C@@H](Cc1c[nH]cn1)C(=O)O)[C@@H](C)O)[C@@H](C)O` [CY12-RP2] (H-TYLCTACDYTHH-OH; N-terminus and C-terminus assumed) the “viability of tumor cells with CY12-RP2-pretreated PBMC” value (melanoma cells) was “declined significantly”, the “binding to PDPN (in words)” value [1] was “bound to PDPN in a dose-dependent manner” and the “CD3 + CD4 + T cells ratio to total T cells” value [2] was “significantly increased”. The “CD3 + CD8 + T cells ratio to total T cells” value [2] was “significantly increased”, the “CD4 + CD25 + Foxp3 + Treg cells” value [2] was “significantly diminished” and the “CD11b + CD86 + M1-like macrophages proportion” value [2] was “significantly increased”. For the same compound, the “CD11b + CD206 + M2-like macrophages proportion” value [2] was “decreased”, the “CD49b + Granzyme B + NK cells proportion” value [2] was “significantly increased” and the IC50 (A875 cells; 48 h) was 654 µM. For the same compound, the IC50 (A875 cells; 72 h) was 117 µM, the “cell growth inhibition (in words)” value (A875 cells; PDPN underexpressed A875, CCK8, various concentrations) was “relatively diminished impact” and the IC50 (A375 cells; 24 h) was 602 µM. The IC50 (A375 cells; 48 h) was 118 µM, the IC50 (A375 cells; 72 h) was 55.2 µM and the “cell growth inhibition (in words)” value (A375 cells; PDPN overexpressed A375, CCK8, various concentrations) was “dramatically inhibited cell growth in a dose-dependent manner”. The relative spheroid diameter (A875 cellular spheroids) was “only a high concentration of CY12-RP2 (200 μM) could decrease the diameter”.
